In US7135568B2, “Substituted pyrazolopyrimidines and thiazolopyrimidines” (Gruenenthal GmbH, priority 2001, dated 2006):
Counter-ions that a name gives are not always drawn.

Key:
[1] = target: T1, nucleoside transport protein (Homo sapiens, UniProt Q99808); assay: inhibition of the nucleoside transport protein ([3H]NBl displacement, erythrocyte membrane); assay type: binding; settings: 1.5 nM [3H]NBl; for % Displacement at 10 μM: 10 μM compound; for Ki: 30 minutes at 25° C.
T1 construct: 100 μl of an aqueous suspension of erythrocyte membrane; from tissue; host or cells: erythrocyte membrane
T1 sequence (Q99808 1-456): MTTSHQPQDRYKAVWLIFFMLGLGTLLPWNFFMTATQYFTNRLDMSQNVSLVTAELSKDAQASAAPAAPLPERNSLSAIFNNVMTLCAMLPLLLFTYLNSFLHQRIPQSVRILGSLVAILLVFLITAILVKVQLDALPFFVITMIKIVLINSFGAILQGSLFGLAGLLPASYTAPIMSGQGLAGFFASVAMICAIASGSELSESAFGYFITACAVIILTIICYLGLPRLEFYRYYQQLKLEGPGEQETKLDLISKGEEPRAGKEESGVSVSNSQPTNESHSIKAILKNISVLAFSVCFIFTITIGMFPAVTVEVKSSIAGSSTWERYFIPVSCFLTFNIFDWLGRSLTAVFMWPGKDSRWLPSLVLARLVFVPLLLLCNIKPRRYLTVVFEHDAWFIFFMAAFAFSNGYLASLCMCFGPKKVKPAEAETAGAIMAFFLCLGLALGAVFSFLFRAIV
Protocol: The following test conditions were chosen for the determination of the inhibition of the nucleoside transport protein:
100 μl of the substance solution in aqueous solution with DMSO as solution aid were incubated for 30 minutes at 25° C. with 100 μl of 1.5 nM [^3H]NBl ([…]), 100 μl of buffer (50 mM Tris.HCl, pH 7.4) and 100 μl of an aqueous suspension of erythrocyte membrane. After the incubation the test mixture was filtered off (Whatman GF/C Filter, post-washed with 50 mM Tris.HCl). The filters were transferred to test tubes, 3.5 ml of scintillation fluid were added, and after 2 hours the radioactivity was measured in a β-counter.

[2] = system: (+)-MK801 binding site of the ionotropic NMDA receptor; assay: (3H)-(+)-MK801 receptor binding test on rat brain membrane homogenate; settings: 10 μmole/l compound, 1 nmole/l (3H)-(+)-MK801, mean values of double determinations
Protocol: The investigations to determine the NMDA antagonistic action of the compounds according to the invention were carried out on brain membrane homogenates (rat brain homogenate minus cerebellum, pons and medulla oblongata from male Wistar strain rats (Charles River, Sulzfeld, Germany)).
For this, freshly prepared rat brains were digested, after removal of the cerebellum, pons and medulla oblongata, in 50 mmole/l Tris/HCl (pH 7.7) in a Polytron homogeniser (model PT3000, Kinematika AG, Littau, Switzerland) at 6,000 revs. per minute (rpm) for 1 minute while cooling in ice and then centrifuged for 15 minutes at 4° C. and 60,000 g. The supernatant was decanted and discarded, and the membrane pellet was taken up again in 50 mmole/l of Tris/HCl (pH 7.7) and digested in a homogeniser at 2,000 rpm for 1 minute and recentrifuged for 15 minutes at 4° C. and 60,000 g. The supernatant was discarded again and the membrane pellet was homogenised in 50 mmole/l Tris/HCl (pH 7.7) (2,000 rpm for 1 minute) and aliquot portions were frozen at −70° C.
For the receptor binding test aliquots were in each case thawed out and then centrifuged for 15 minutes at 4° C. and 60,000 g. After decanting and discarding the supernatant, the membrane pellet for the binding test was taken up in binding test buffer and homogenised (2,000 rpm for 1 minute). 5 mmole/l Tris/HCl (pH 7.7) supplemented with 30 μmole/l of glycine and 100 μmole/l of glutamic acid was used as binding test buffer.
1 nmole/l of (^3H)-(+)-MK801 ((5R, 10S)-(+)-5-methyl-10,11-dihydro-5H-dibenzo(a,d)cyclohepten-5,10-imine (NET-972, NEN, Cologne, Germany) was added as radioactively labelled ligand. The proportion of non-specific binding was determined in the presence of 10 μmole/l of non-radioactively labelled (+)-MK801 (RBI/Sigma, Deisenhofen, Germany). In further assays the respective compounds according to the invention were added in concentration series and the displacement of the radioactive ligand from its specific binding to the NMDA receptor was measured.
The batches were incubated in each case for 40 minutes at 25° C. and then harvested by filtration to determine the radioactive ligand bound to the brain membrane homogenate. The radioactivity retained by the filter was measured after adding a scintillator (“Ready Protein” scintillator, Beckmann Coulter GmbH, Krefeld, Germany) in a β-counter (Packard TR^1-CARB Liquid Scintillation Analyser 2000CA, Packard Instrument, Meriden, Conn. 06450, USA).
The resulting percentage inhibition of the specific binding of the ligand (^3H)-(+)-MK801 in the presence of in each case 10 μmole/l of the respective compound according to the invention serves as a measure of the affinity of this compound for the (+)-MK801 binding site of the ionotropic NMDA receptor. The affinities are given in Table 2 as mean values of double determinations on selected examples.

[3] = target: T2, recombinant human adenosine A3 receptor (Homo sapiens, UniProt P0DMS8); assay: adenosine A3 receptor displacement assay with [125I]AB-MECA; assay type: binding; settings: compound concentration 3 μM; ligand 0.1 nM [125I]AB-MECA
T2 construct: expressed in transfected cells
T2 sequence (P0DMS8 1-318): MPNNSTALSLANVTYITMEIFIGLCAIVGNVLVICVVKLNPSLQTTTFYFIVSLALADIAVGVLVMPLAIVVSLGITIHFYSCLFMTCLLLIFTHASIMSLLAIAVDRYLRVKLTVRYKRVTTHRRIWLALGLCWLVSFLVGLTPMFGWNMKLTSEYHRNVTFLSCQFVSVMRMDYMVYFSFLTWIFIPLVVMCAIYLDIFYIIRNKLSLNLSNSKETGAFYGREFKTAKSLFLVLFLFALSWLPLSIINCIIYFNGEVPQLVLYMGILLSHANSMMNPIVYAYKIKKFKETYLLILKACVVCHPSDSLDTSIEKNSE
Protocol: The dihydrochloride of Example 147 (prepared from Example 147 in a similar manner to Examples 145 and 152) was investigated as regards its affinity for the recombinant human adenosine A3 receptor in a displacement assay (C. A. Salvatore et al., Process. Natl. Acad. Sci. USA (1993), Vol. 90, 10365–10369). At a ligand concentration of 0.1 nM [^125I]AB-MECA (N^6-(4-amino-3-[^125I]iodobenzyladenosine) the displacement at a concentration of 3 μM was 93%.

SMILES | Ki [1] [nM] | % Inhibition of the specific binding of the ligand (3H)-(+)-MK801 [2] [%] | other results
COc1ccc(C2CC(c3ccc([N+](=O)[O-])o3)Nc3c(Br)c(-c4ccccc4)nn32)cc1OC (stereo not shown) [Example 39, 3-bromo-7-(3,4-dimethoxyphenyl)-5-(5-nitrofuran-2-yl)-2-phenyl-tetrahydropyrazolo[1,5-a]pyrimidine] | – | – | % Displacement at 10 μM [1]: 40%
COc1ccc(C2CC(c3ccc([N+](=O)[O-])s3)Nc3c(N=Nc4ccccc4)c(O)nn32)cc1OC (stereo not shown) [Example 53, 7-(3,4-dimethoxyphenyl)-5-(5-nitrothiophen-2-yl)-3-phenylazotetrahydropyrazolo[1,5-a]pyrimidin-2-ol] | 600 | – | –
COc1ccc(C2CC(c3ccc([N+](=O)[O-])s3)Nc3c(Br)c(-c4ccccc4)nn32)cc1OC (stereo not shown) [Example 54, 3-bromo-7-(3,4-dimethoxyphenyl)-5-(5-nitrothiophen-2-yl)-2-phenyltetrahydropyrazolo[1,5-a]pyrimidine] | 1300 | – | –
COc1ccc(C2CC(c3ccc([N+](=O)[O-])s3)Nc3c(C#N)c(SC)nn32)cc1OC (stereo not shown) [Example 55, 7-(3,4-dimethoxyphenyl)-2-methylsulfanyl-5-(5-nitrothiophen-2-yl)-tetrahydropyrazolo[1,5-a]pyrimidine-3-carbonitrile] | 400 | – | –
COc1ccc(C2CC(c3ccc([N+](=O)[O-])s3)Nc3c(C#N)cnn32)cc1OC (stereo not shown) [Example 56, 7-(3,4-dimethoxyphenyl)-5-(5-nitrothiophen-2-yl)-tetrahydropyrazolo[1,5-a]pyrimidine-3-carbonitrile] | – | – | % Displacement at 10 μM [1]: 43%
COc1ccc(C2CC(CCc3ccccc3)Nc3c(C#N)c(SC)nn32)cc1OC (stereo not shown) [Example 111, 7-(3,4-dimethoxyphenyl)-2-methylsulfanyl-5-phenethyl-tetrahydropyrazolo[1,5-a]pyrimidine-3-carbonitrile] | 300 | – | –
OC1=NN2C(=NC(c3ccccn3)CC2Sc2ccccc2)C1N=Nc1ccccc1 (stereo not shown) [Example 142, 3-phenylazo-7-phenylsulfanyl-5-pyridin-2-yl-3,5,6,7-tetrahydropyrazolo[1,5-a]pyrimidin-2-ol] | – | 75 | –
N#CC1C=NN2C1=NC(c1ccccn1)CC2Sc1ccccc1 (stereo not shown) [Example 144, 7-phenylsulfanyl-5-pyridin-2-yl-3,5,6,7-tetrahydropyrazolo[1,5-a]pyrimidine-3-carbonitrile] | – | 45 | –
COc1ccc(C2CC(c3ccc([N+](=O)[O-])o3)Nc3c(C#N)c(SC)nn32)cc1OC (stereo not shown) [Example 153, 7-(3,4-dimethoxyphenyl)-2-methylsulfanyl-5-(5-nitrofuran-2-yl) tetrahydropyrazolo[1,5-a]pyrimidine-3-carbonitrile] | – | – | % Displacement at 10 μM [1]: 50%
CCOC(=O)c1cnn2c1NC(c1ccccn1)CC2c1ccc(OC)c(OC)c1 (stereo not shown) [Example 154, 7-(3,4-dimethoxyphenyl)-5-pyridin-2-yl-4,5,6,7-tetrahydropyrazolo[1,5-a]pyrimidine-3-carboxylic acid ethyl ester] | – | – | % Displacement at 10 μM [1]: 41%
COc1ccc(C2CC(c3ccccn3)Nc3c(Br)c(-c4ccccc4)nn32)cc1OC (stereo not shown) [dihydrochloride of Example 147, 3-bromo-7-(3,4-dimethoxyphenyl)-2-phenyl-5-pyridin-2-yl-tetrahydropyrazolo[1,5-a]pyrimidine] | – | – | displacement [3]: 93%

Further lines, with some results ahead:

Ki [1] [nM] | % Inhibition of the specific binding of the ligand (3H)-(+)-MK801 [2] [%] | SMILES | other results
600 | – | COc1ccc(C2CC(C(=O)c3ccccc3)Nc3c(C#N)c(SC)nn32)cc1OC (stereo not shown) [Example 64, 5-benzoyl-7-(3,4-dimethoxyphenyl)-2-methylsulfanyltetrahydropyrazolo[1,5-a]pyrimidine-3-carbonitrile] | –
– | 44 | OC1=NN2C(=NC(c3ccccn3)CC2c2ccccc2)C1N=Nc1ccccc1 (stereo not shown) [Example 140, 7-phenyl-3-phenylazo-5-pyridin-2-yl-3,5,6,7-tetrahydropyrazolo[1,5-a]pyrimidin-2-ol] | –
– | 45 | CCOC(=O)C1C=NN2C1=NC(c1ccccn1)CC2Sc1ccccc1 (stereo not shown) [Example 141, 7-phenylsulfanyl-5-pyridin-2-yl-3,5,6,7-tetrahydropyrazolo[1,5-a]pyrimidine-3-carboxylic acid ethyl ester] | –
– | 49 | BrC1C=NN2C1=NC(c1ccccn1)CC2Sc1ccccc1 (stereo not shown) [Example 143, 3-bromo-7-phenylsulfanyl-5-pyridin-2-yl-3,5,6,7-tetrahydropyrazolo[1,5-a]pyrimidine] | –
400 | – | COc1ccc(C2CC(c3ccccn3)Nc3c(Br)c(-c4ccccc4)nn32)cc1OC (stereo not shown) [Example 145, 3-bromo-7-(3,4-dimethoxyphenyl)-2-phenyl-5-pyridin-2-yl-4,5,6,7-tetrahydropyrazolo[1,5-a]pyrimidine dihydrochloride] | –
